The results in this text go back to PMC6934184, “Selective DNA-PKcs inhibition extends the therapeutic index of localized radiotherapy and chemotherapy” (The Journal of Clinical Investigation, 2019).

This test addresses T1, ROCK2 (Homo sapiens, UniProt O75116).
T1 construct: purchased Thermo Fisher Scientific (Life Technologies) SelectScreen
The experiment in a line: SelectScreen Z'LYTE. In kind it is biochemical. In outline: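 Percent values come from Thermo SelectScreen profiling of NU5455, combining activity and binding assays. CSF1R was run in Z'LYTE format at Km app ATP, and CAMK1 in Adapta format with ATP listed at 10.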

T1 sequence (O75116 whole entry): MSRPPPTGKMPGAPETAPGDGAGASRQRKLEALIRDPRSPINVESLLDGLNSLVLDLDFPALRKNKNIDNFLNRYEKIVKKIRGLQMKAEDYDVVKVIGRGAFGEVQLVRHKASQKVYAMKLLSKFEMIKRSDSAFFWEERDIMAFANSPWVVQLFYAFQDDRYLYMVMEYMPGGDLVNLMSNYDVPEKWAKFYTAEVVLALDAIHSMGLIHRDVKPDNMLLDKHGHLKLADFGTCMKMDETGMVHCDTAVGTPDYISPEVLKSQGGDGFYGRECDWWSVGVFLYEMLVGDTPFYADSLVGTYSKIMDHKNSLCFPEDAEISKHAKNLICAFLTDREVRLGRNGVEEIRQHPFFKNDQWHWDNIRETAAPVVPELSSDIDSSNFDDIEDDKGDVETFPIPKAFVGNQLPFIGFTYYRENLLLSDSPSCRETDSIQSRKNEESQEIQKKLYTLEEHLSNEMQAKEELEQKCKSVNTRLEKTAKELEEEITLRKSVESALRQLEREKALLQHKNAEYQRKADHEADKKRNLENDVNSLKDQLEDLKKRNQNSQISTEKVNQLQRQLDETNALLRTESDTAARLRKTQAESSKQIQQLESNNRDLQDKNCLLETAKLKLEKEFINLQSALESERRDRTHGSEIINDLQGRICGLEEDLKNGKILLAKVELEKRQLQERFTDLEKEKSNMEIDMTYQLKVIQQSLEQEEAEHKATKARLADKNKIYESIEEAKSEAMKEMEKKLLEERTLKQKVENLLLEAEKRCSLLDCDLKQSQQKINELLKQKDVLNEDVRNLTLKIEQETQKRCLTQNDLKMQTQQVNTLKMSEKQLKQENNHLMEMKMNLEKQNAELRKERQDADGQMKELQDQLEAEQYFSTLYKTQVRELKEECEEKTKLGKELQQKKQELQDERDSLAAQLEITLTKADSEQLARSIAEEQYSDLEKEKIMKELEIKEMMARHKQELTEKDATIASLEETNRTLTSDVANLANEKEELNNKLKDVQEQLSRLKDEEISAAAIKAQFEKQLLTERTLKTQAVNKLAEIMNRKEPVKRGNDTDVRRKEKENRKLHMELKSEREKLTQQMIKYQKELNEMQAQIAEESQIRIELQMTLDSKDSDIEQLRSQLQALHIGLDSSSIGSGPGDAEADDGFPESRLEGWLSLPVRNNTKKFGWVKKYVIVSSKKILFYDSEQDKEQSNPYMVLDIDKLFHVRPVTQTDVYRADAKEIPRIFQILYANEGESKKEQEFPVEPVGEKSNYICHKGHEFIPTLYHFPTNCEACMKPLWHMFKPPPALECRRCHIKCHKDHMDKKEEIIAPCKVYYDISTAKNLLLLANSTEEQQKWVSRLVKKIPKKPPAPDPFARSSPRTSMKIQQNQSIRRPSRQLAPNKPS

The inhibition is the relative decrease from the control value, in per cent. Take `CN(C(=O)CN1CCOCC1)c1ccc2sc3c(-c4cccc5c(=O)cc(N6CC7CCC(C6)O7)oc45)cccc3c2c1` [NU5455]: the inhibition at 1 µM was -4.1%.
